Source: patent US9650371B2, “Sulfur-containing heterocyclic derivative having beta secretase inhibitory activity” (Shionogi & Co., Ltd., priority 2008, dated 2017)

Target: human ether-a-go-go related gene (hERG) channel (Homo sapiens (Human), UniProt Q12809)
Assay: hERG test
Type: cell-based
Settings: HEK293 cells expressing hERG, whole cell patch clamp, 10 minutes
From the text: For the purpose of assessing risk of an electrocardiogram QT interval prolongation, effects on delayed rectifier K+ current (IKr), which plays an important role in the ventricular repolarization process, was studied using HEK293 cells expressing human ether-a-go-go related gene (hERG) channel.
After a cell was retained at a membrane potential of −80 mV by whole cell patch clamp method using an automated patch clamp system (PatchXpress 7000A, Axon Instruments Inc.), IKr induced by depolarization pulse stimulation at +50 mV for 2 seconds and, further, repolarization pulse stimulation at −50 mV for 2 seconds was recorded. […] From the recording IKr, an absolute value of the tail peak current was measured based on the current value at the resting membrane potential using an analysis software (DataXpress ver.1, Molecular Devices Corporation). Further, the % inhibition relative to the tail peak current before application of the test substance was calculated, and compared with the vehicle-applied group (0.1% dimethyl sulfoxide solution) to assess influence of the test substance on IKr.

human ether-a-go-go related gene (hERG) channel, sequence (Q12809 whole entry): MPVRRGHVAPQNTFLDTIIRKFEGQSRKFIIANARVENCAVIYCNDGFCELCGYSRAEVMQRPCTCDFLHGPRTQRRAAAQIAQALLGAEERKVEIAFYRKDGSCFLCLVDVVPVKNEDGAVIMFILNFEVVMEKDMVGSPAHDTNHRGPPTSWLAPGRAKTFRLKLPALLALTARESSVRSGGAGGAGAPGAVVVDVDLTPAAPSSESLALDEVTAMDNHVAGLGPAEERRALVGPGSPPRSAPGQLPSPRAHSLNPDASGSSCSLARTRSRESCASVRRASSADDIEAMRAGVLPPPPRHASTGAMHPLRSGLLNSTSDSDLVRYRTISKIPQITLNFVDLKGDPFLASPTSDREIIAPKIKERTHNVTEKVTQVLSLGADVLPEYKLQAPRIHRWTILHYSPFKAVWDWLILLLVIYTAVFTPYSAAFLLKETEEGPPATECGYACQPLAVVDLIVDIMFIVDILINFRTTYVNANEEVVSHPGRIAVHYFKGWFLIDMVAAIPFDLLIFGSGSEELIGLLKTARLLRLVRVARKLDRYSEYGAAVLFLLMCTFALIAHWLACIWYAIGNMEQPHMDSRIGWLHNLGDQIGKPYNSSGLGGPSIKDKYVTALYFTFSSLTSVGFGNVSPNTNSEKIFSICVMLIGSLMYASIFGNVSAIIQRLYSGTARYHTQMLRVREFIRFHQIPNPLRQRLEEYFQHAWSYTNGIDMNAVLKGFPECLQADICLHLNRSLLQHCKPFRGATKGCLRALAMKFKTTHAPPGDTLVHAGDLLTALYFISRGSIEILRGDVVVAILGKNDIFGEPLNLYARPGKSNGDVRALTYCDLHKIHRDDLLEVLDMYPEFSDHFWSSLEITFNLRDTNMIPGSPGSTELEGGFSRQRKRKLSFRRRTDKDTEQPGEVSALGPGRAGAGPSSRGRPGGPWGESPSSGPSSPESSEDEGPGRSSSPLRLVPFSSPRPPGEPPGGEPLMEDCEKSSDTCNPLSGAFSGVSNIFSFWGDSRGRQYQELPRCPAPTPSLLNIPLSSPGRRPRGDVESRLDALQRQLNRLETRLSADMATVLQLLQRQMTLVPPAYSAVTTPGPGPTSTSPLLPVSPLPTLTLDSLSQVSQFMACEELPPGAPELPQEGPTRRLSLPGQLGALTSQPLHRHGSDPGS

For CNC(=O)c1ccc(-c2ccc(F)c([C@]3(C)C=CSC(N)=N3)c2)cn1 [Compound 92], the “% inhibition of tail peak current (IKr)” value was 7.9%.
In the case of C=C1C[C@@](C)(c2cc(NC(=O)c3cnc(OC)cn3)cnc2C)N=C(N)S1 [Compound 102], the “% inhibition of tail peak current (IKr)” value is reported as 2.3%.
